Values of other authors, collected in US20250179129A1, “ZINC FINGER PEPTIDES, PEPTIDE ARRAYS, AND METHODS OF USE THEREOF” (The Regents of the University of California, priority 2022, published 2025).

Tested on: single-strand RNA containing a GGU motif

SDGDWICPDKKCGNVNFARRTSCNRCGREKTT (listed as Homo sapiens) [zinc finger in ZRANB2]
affinity for single-strand RNA containing a GGU motif: micromolar
